{"source": "patent US20140328840A1", "about": "“MARKER AND TARGET FOR RESPONSIVENESS AND RESISTANCE TO CANCER AGENTS” (The Provost, Fellows, Foundation Scholars, and the Other …, priority 2011, published 2014)", "key": {"[1]": {"tested_on": "NmU mRNA in HCC1954 cells", "experiment": "Short-term drug exposure, qPCR of NmU mRNA in conditioned medium and cells", "type": "cell-based", "conditions": "48 hours; for induced NmU mRNA in CM / induced NmU mRNA in cells: HCC1954, 0.5 μM, vs untreated control", "description": "(§1) Conditioned medium (CM) was collected, centrifuged and filtered, as previously described (1-2), prior to NmU mRNA and protein analysis.\n(§2) Total RNA was isolated from cell lines and CM using TriReagent (Sigma-Aldrich). In order to remove any potential contaminating genomic DNA, RNA was treated with DNase enzymes and minus reverse transcriptase enzyme controls verified no DNA/pseudogene contamination of starting material. cDNA was prepared from 500ng cell-derived and 4 μl CM-derived total RNA, respectively."}, "[2]": {"tested_on": "SKBR3-LR, HCC1954-LR, T47D and MDA-MB-361 cells", "experiment": "Effects of NmU siRNAs with HER-targeted drugs on proliferation (acid phosphatase)", "type": "cell-based", "description": "(§3) Two siRNAs, designated NmU-1 (SEQ ID NO: 3; 5′-[…]-3′) and NmU-2 (SEQ ID NO: 4; 5′-[…]-3′) (s225456 and s21351, respectively, Ambion, UK), (30 nM) were used to target NmU. Scrambled siRNA (SCR) (AM4611, Ambion, UK) was used as negative control. Transient transfections were harvested 72 hours post-transfection for RNA and protein extraction. NmU full-length cDNA was sub-cloned from pOTB7 (clone ID3502168, Open Biosystems, Ireland) by PCR into pcDNA 3.1(+) zeo-plasmid vector (Invitrogen, Ireland). The construct was verified by DNA sequencing. Mock controls used were of pcDNA3.1(+) plasmid lacking NmU cDNA. Lipofectamine 2000 (Invitrogen, Ireland) was used for transfection following the manufacturer's instructions. Stable transfectants were established by selecting with zeocin (50 μg/ml and 300 μg/ml for HCC1954 and SKBR3 transfected cells, respectively; based on initial assessment of the toxicity of zeocin on these cells) (Invitrogen, Ireland).\n(§4) To investigate if knock-down of NmU affected response to HER-targeting, cell lines with acquired Lapatinib-resistance (SKBR3-LR, HCC1954-LR) and innately unresponsive (MDA-MB-361, T47D) were assessed. […] Similarly, fixed concentrations of Neratinib (1 μM) and Afatinib (0.5 μM) were used. These were cultured for 72 hours and subsequently assessed using acid phosphate analysis."}, "HCC1954 cells [3]": {"tested_on": "HCC1954 cells", "experiment": "Resistance to HER-targeted drugs after exogenous NmU treatment", "type": "cell-based", "conditions": "HCC1954, exogenous NmU (NmU-25) 48 hours; all drugs", "description": "(§5) To assess if functional NmU receptors are expressed on cells, SKBR3 and HCC1954, (1×10^6 cells) were seeded in 25 cm^2 flask, allowed attach overnight and subsequently treated with 1 μM of NmU-25 (Bachem, Switzerland) for 24-48 hours."}, "SKBR3-LR cells": {"tested_on": "SKBR3-LR cells", "experiment": "Proliferation assay (acid phosphatase), Lapatinib-resistant SKBR3", "type": "cell-based", "description": "(§6) SKBR3, HCC1954, MDA-MB-361, T47D cells, obtained from ATCC, were cultured in RPMI-1640 (Sigma-Aldrich) with 10% FCS (PAA) and 1% L-glutamine. […] Lapatinib-resistant SKBR3 and HCC1954 cells (SKBR3-LR, HCC1954-LR) were established by continuously exposing cells to Lapatinib, starting with 5 nM and incrementally increasing to 250 nM over 6 months. Neratinib-resistant SKBR3 and HCC1954 cells (SKBR3-NR, HCC1954-NR) resulted from continuously exposing cells to Neratinib, starting with 10 nM and incrementally increasing to 250 nM over 6 months.\n(§7) Cells with acquired-resistance compared to aged-parent cells and NmU cDNA-versus mock-transfected cells (HCC1954 variants, 2×10^3 cells/well; SKBR3 variants, 5×10^3 cells/well) were seeded for 24 hours prior to drug additions. […] Five days later, acid phosphatase assay was performed as previously detailed (3)."}, "SKBR3-Ag cells": {"tested_on": "SKBR3-Ag cells", "experiment": "Proliferation assay (acid phosphatase), aged parent SKBR3", "type": "cell-based", "conditions": "Homo sapiens, SK-BR-3, 120 h, read-out: concentration that inhibits 50% of proliferation (IC50), five days", "description": "as §6, §7"}, "HCC1954-LR cells": {"tested_on": "HCC1954-LR cells", "experiment": "Proliferation assay (acid phosphatase), Lapatinib-resistant HCC1954", "type": "cell-based", "description": "as §6, §7"}, "HCC1954-Ag cells": {"tested_on": "HCC1954-Ag cells", "experiment": "Proliferation assay (acid phosphatase), aged parent HCC1954", "type": "cell-based", "conditions": "Homo sapiens, 120 h, read-out: concentration that inhibits 50% of proliferation (IC50), five days", "description": "as §6, §7"}, "MDA-MB-361 cells": {"tested_on": "MDA-MB-361 cells", "experiment": "Proliferation, previously determined IC50", "type": "cell-based", "conditions": "Homo sapiens; MDA-MB-361, previously determined; read-out: approximate IC50 concentration", "description": "as §4"}, "T47D cells": {"tested_on": "T47D cells", "experiment": "Proliferation, previously determined IC50", "type": "cell-based", "conditions": "Homo sapiens, read-out: approximate IC50 concentration", "description": "as §4"}, "NmU mRNA in SKBR3 cells": {"tested_on": "NmU mRNA in SKBR3 cells", "experiment": "Short-term drug exposure, qPCR of NmU mRNA in conditioned medium and cells", "type": "cell-based", "conditions": "SKBR3, 1 μM, 48 hours, vs untreated control CM", "description": "as §1, §2"}, "HCC1954-NmU cells": {"tested_on": "HCC1954-NmU cells", "experiment": "Proliferation assay, NmU cDNA- versus mock-transfected cells", "type": "cell-based", "conditions": "HCC1954-NmU vs HCC1954-mock", "description": "as §3, §7"}, "SKBR3-NmU cells": {"tested_on": "SKBR3-NmU cells", "experiment": "Proliferation assay, NmU cDNA- versus mock-transfected cells", "type": "cell-based", "conditions": "SKBR3-NmU vs SKBR3-mock", "description": "as §3, §7"}, "SKBR3 cells": {"tested_on": "SKBR3 cells", "conditions": "cited from earlier work"}, "HCC1954 cells [4]": {"tested_on": "HCC1954 cells", "conditions": "cited from earlier work"}, "MDA-MB-361": {"tested_on": "MDA-MB-361", "conditions": "cited from earlier work"}, "T47D": {"tested_on": "T47D", "conditions": "cited from earlier work"}, "HER2": {"tested_on": "HER2", "experiment": "Exogenous NmU treatment, HER2 expression", "type": "cell-based", "conditions": "1 μM, 24-48 hours; SKBR3 and HCC1954 cells", "description": "as §5\n(§8) Total cellular proteins (30-40 μg, depending on the specific protein's abundance; but constant for any given protein) were resolved on 6-10% SDS-PAGE and transferred to PVDF membranes (Millipore, Ireland). Primary antibodies used included EGFR (Neomarker); HER2 (Calbiochem); Akt, p-Akt (Cell Signalling); NmU-R1 (Sigma-Aldrich); NmU-R2 (LifeSpan Biosciences); β-actin (Sigma-Aldrich). Membranes were incubated with appropriate horseradish peroxidase-conjugated secondary antibodies (Cell Signalling) and proteins were visualized by chemiluminescence (Millipore). Detection was performed with a Chemidoc exposure system (Bio-Rad Laboratories). ELISA kit for NmU (Peninsula Laboratories, US), HER2 (Calbiochem, US), p-HER2, EGFR, p-EGFR (R&D Systems, US) were used according to the manufacturer's instructions."}, "EGFR": {"tested_on": "EGFR", "experiment": "Exogenous NmU treatment, EGFR expression", "type": "cell-based", "conditions": "1 μM, 24-48 hours", "description": "as §5, §8"}}, "data": [{"compound": "CN(C)C/C=C/C(=O)Nc1cc2c(Nc3ccc(F)c(Cl)c3)ncnc2cc1O[C@H]1CCOC1", "note": "[Afatinib]", "values": [{"measurement": "induced NmU mRNA in CM", "setting": "[1]", "result": "3.3±0.49", "unit": "fold"}, {"measurement": "induced NmU mRNA in cells", "setting": "[1]", "result": "3±0.38", "unit": "fold"}, {"measurement": "inhibition at 0.5 µM", "setting": "[2]; 0.5 μM, 72 hours, NmU-1/NmU-2 siRNA vs SCR, range over cell lines and siRNAs, read-out: further inhibition of growth with NmU knock-down", "result": "18 to 47", "unit": "%"}, {"measurement": "level of resistance induced by exogenous NmU", "setting": "HCC1954 cells [3]", "result": 1.1, "unit": "fold"}]}, {"compound": "CS(=O)(=O)CCNCc1ccc(-c2ccc3ncnc(Nc4ccc(OCc5cccc(F)c5)c(Cl)c4)c3c2)o1", "note": "[Lapatinib]", "values": [{"measurement": "IC50", "setting": "SKBR3-LR cells; Homo sapiens, SK-BR-3, 120 h, read-out: concentration that inhibits 50% of proliferation (IC50), SKBR3-LR, five days", "result": "~3", "unit": "µM"}, {"measurement": "fold resistance", "setting": "SKBR3-LR cells; SKBR3-LR in relation to SKBR3-Ag", "result": "29.8±2.2", "unit": "fold"}, {"measurement": "IC50", "setting": "SKBR3-Ag cells", "result": 0.09, "unit": "µM"}, {"measurement": "fold resistance", "setting": "HCC1954-LR cells; HCC1954-LR compared to HCC1954-Ag", "result": "19.1±2.8", "unit": "fold"}, {"measurement": "IC50", "setting": "HCC1954-LR cells; Homo sapiens, HCC1954, 120 h, read-out: concentration that inhibits 50% of proliferation (IC50), HCC1954-LR, five days", "result": "~5", "unit": "µM"}, {"measurement": "IC50", "setting": "HCC1954-Ag cells", "result": 0.3, "unit": "µM"}, {"measurement": "IC50", "setting": "MDA-MB-361 cells", "result": "~1", "unit": "µM"}, {"measurement": "IC50", "setting": "T47D cells", "result": "~5", "unit": "µM"}, {"measurement": "levels of NmU mRNA detectable in CM", "setting": "[1]; HCC1954, 1 μM, vs untreated control CM", "result": "significantly higher"}, {"measurement": "levels of NmU mRNA detectable in CM", "setting": "NmU mRNA in SKBR3 cells", "result": "significantly higher"}, {"measurement": "anti-proliferative effects in NmU-transfected compared to mock-transfected cells", "setting": "HCC1954-NmU cells", "result": "significantly compromised"}, {"measurement": "anti-proliferative effects in NmU-transfected compared to mock-transfected cells", "setting": "SKBR3-NmU cells", "result": "significantly compromised"}, {"measurement": "further inhibition of proliferation with NmU knock-down", "setting": "[2]; drug at IC50 concentration, 72 hours, NmU-1/NmU-2 siRNA vs SCR, range over cell lines and siRNAs", "result": "12-49%"}, {"measurement": "level of resistance induced by exogenous NmU", "setting": "HCC1954 cells [3]", "result": 1.1, "unit": "fold"}, {"measurement": "innate sensitivity/resistance", "setting": "SKBR3 cells", "result": "sensitive"}, {"measurement": "innate sensitivity/resistance", "setting": "HCC1954 cells [4]", "result": "sensitive"}, {"measurement": "innate sensitivity/resistance", "setting": "MDA-MB-361", "result": "resistant"}, {"measurement": "innate sensitivity/resistance", "setting": "T47D", "result": "unresponsive"}]}, {"compound": "CCOc1cc2ncc(C#N)c(Nc3ccc(OCc4ccccn4)c(Cl)c3)c2cc1NC(=O)/C=C/CN(C)C", "note": "[Neratinib]", "values": [{"measurement": "induced NmU mRNA in CM", "setting": "[1]", "result": "3.6±1", "unit": "fold"}, {"measurement": "induced NmU mRNA in cells", "setting": "[1]", "result": "3.6±0.54", "unit": "fold"}, {"measurement": "anti-proliferative effects in NmU-transfected compared to mock-transfected cells", "setting": "HCC1954-NmU cells", "result": "significantly compromised"}, {"measurement": "anti-proliferative effects in NmU-transfected compared to mock-transfected cells", "setting": "SKBR3-NmU cells", "result": "significantly compromised"}, {"measurement": "inhibition at 1 µM", "setting": "[2]; 72 h, read-out: further inhibition of growth with NmU knock-down", "result": "19 to 58", "unit": "%"}, {"measurement": "level of resistance induced by exogenous NmU", "setting": "HCC1954 cells [3]", "result": 1.1, "unit": "fold"}]}, {"compound": "NmU-25: exogenous NeuromedinU 25 amino acid active peptide (Bachem) (FRVDEEFQSPFASQSRGYFLFRPRN)", "values": [{"measurement": "expression of HER2 protein", "setting": "HER2", "result": "induced expression"}, {"measurement": "expression of EGFR protein", "setting": "EGFR; SKBR3 and HCC1954 cells", "result": "induced expression"}, {"measurement": "pEGFR", "setting": "EGFR; SKBR3 cells", "result": "induced expression"}]}]}
